Experimental findings from US20250082598A1, “Melafenoxate, 2-(1-adamantylamino)ethyl 2-(4-chlorophenoxy)acetate and derivatives thereof for treating circadian rhythm sleep disorders with neurodegenerative diseases such as Alzheimer's disease” (NLS Pharmaceutics AG, priority 2021, published 2025) are described below.

The target in one assay is T1, NET (h) (Homo sapiens, UniProt P23975).
T1 construct: Eurofins
Nature of the assay: Radioligand binding, NET (h). The settings on record: 10^−5 M; antagonist radioligand. As for the experimental part: (§1) Melafenoxate was tested at 10^−5 M, calculated as a % inhibition of control specific binding of a radioactively labeled ligand specific for each target.
(§2) This binding profile panel was broadly defined with roughly an equal number of selective, central and peripheral therapeutically relevant targets, including native animal tissues, radioligands and specific enzymes involved in cell cycle regulation in accordance with Eurofins Standard Operating Procedure.
(§3) For radioligand binding experiments, the half maximal inhibitory concentration (IC50) and the half maximal effective concentration (EC50) values were determined (via computer software) by nonlinear regression analysis of the competition curves using Hill equation curve fitting. The inhibition constants (Ki) were calculated using the Cheng-Prusoff equation (Ki=IC50/(1+(L/KD)), where L is the concentration of radioligand in the assay, and KD is the affinity of the radioligand for the receptor.^49
(§4) The results are expressed as a % control specific binding ([measured specific binding/control specific binding]×100) and as a % inhibition of control specific binding (100−[(measured specific binding/control specific binding)×100]) obtained in the presence of the test compounds. […]

A further assay concerns Cl— channel (GABA-gated). In words: Radioligand binding, Cl- channel (GABA-gated). The settings on record: antagonist radioligand. As for the experimental part:
as §1, §2, §3, §4

For the next assay, the target named is T2, 5-HT1A (h) (Homo sapiens, UniProt P08908).
T2 construct: CEREP (Eurofins, France)
T2 sequence (P08908 1-422): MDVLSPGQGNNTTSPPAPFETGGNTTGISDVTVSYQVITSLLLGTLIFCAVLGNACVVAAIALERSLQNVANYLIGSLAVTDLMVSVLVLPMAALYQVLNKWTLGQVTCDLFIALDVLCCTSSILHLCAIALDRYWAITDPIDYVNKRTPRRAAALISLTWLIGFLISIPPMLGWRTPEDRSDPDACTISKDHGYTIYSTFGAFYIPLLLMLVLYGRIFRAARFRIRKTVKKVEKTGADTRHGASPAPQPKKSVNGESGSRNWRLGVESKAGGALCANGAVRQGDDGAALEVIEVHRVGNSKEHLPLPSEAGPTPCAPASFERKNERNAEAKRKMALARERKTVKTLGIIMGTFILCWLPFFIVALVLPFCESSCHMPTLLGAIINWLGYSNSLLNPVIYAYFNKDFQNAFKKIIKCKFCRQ
Nature of the assay: Radioligand binding, 5-HT1A (h). The settings on record: 10^−5 M; agonist radioligand. The protocol:
as §1, §2, §3, §4

T1 sequence (P23975 whole entry): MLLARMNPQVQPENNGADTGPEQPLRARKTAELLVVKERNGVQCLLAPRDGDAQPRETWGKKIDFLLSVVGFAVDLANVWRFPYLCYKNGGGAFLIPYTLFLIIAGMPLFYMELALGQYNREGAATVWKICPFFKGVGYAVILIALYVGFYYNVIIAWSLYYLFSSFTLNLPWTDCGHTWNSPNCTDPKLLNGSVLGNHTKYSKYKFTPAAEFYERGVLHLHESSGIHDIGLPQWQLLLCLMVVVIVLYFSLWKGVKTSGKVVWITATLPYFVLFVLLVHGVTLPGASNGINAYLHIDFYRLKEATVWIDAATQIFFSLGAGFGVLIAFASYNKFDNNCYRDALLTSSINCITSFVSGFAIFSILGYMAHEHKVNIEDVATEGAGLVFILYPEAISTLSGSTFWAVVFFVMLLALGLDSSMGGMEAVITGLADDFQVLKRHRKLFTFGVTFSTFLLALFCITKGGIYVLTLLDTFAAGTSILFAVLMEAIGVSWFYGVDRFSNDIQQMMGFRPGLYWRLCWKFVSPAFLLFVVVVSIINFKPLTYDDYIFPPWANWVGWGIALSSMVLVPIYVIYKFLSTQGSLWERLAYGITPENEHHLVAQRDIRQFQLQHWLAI

Consider `O=C(COc1ccc(Cl)cc1)OCCNC12CC3CC(CC(C3)C1)C2` [Melafenoxate, 2-(1-adamantylamino)ethyl 2-(4-chlorophenoxy)acetate], for which the inhibition at 10 µM on NET (h) amounted to 16.5%; on 5-HT1A (h) it was 10.4%. Moreover, the “% Inhibition at 10^−5 M” value with Cl— channel (GABA-gated) is on record as 13.5%.

One may read the inhibition as the share of the control response that was lost under treatment. One may read the % Inhibition as how much of the control response was suppressed. Low values mean little suppression, high ones strong suppression.
